ChEMBL document CHEMBL3046535, “Evaluation of some weed control treatments for long season weed control in maize (Zea mays L.) under zero and minimum tillage at Samaru, in Nigeria” (Crop Prot, 2008)

Tests used:
Assay type in all cases: organism-based
Zea mays [1] = assay: Toxicity in Zea mays TZBSR (maize) assessed as crop injury at 1.5 kg a.i/ha applied post-emergence after ridgining at minimum tillage conditions using Knapsack sprayer; conditions: in vivo, other
Zea mays [2] = assay: Toxicity in Zea mays TZBSR (maize) assessed as crop stand count at 1.5 kg a.i/ha applied post-emergence after ridgining at minimum tillage conditions using Knapsack sprayer measured 6 weeks post treatment; conditions: in vivo, other, 1008 h
Zea mays [3] = assay: Toxicity in Zea mays TZBSR (maize) assessed as plant height at 1.5 kg a.i/ha applied post-emergence after ridgining at minimum tillage conditions using Knapsack sprayer measured 9 weeks post treatment; conditions: in vivo, other, 1512 h
Zea mays [4] = assay: Toxicity in Zea mays TZBSR (maize) assessed as crop vigour at 1.5 kg a.i/ha applied post-emergence after ridgining at minimum tillage conditions using Knapsack sprayer; conditions: in vivo, other

| Structure (SMILES) | Activity (Zea mays [1]) | Activity (Zea mays [2]) | Activity (Zea mays [3]) [m] | Activity (Zea mays [4]) |
| --- | --- | --- | --- | --- |
| O=C(O)COc1ccc(Cl)cc1Cl [2,4-DICHLOROPHENOXYACETIC ACID] | Non-toxic | Non-toxic | 3.33 | Non-toxic |
| CCNc1nc(Cl)nc(NC(C)C)n1 [ATRAZINE] | Non-toxic | – | 3.35 | Non-toxic |
